Measurements: patent publication US20240299385A1 (ReWind Therapeutics NV, priority 2021, published 2024)

Biological target: T1, human GPR17 receptor (Homo sapiens, UniProt Q13304)
T1 construct: host or cells: HEK-293
Experiment: Calcium mobilization functional assay (Fluo-8, FLIPR TETRA) in HEK-293 hGPR17 (Gα-q assay)
Format: cell-based
Details: antagonism of MDL29,951 (~EC80) induced Ca2+ signal; cell line (HEK-293 hGPR17 or HEK-293 Suchi5 hGPR17) not given
Procedure: HEK-293 cells stably expressing the human GPR17 receptor (HEK-293 hGPR17) developed by Axxam (Bresso, Milan, Italy) were cultured at 37° C. in a humidified atmosphere of 5% CO2. Cells were grown in EMEM supplemented with FBS (10%), Penicillin/Streptomycin (1%), Ultraglutamine I (2 mM), puromycin (0.6 μg/mL), G418 (0.4 mg/mL), zeocin (50 μg/mL). This cell line was used to test the compound antagonistic activity by monitoring the Gα-q based signaling. Signaling via Gα-q leads to mobilization of calcium from internal stores. Elevated intracellular calcium levels can then be measured with calcium-sensitive fluorescent dyes (e.g., Fluo 8-No Wash Dye).
GPR17 activation leads to both an increase in intracellular calcium (via Gα-q) and a decrease in cAMP levels (via Gα-i), implicating that both of these pathways play a role for in vivo function.
Experiments were performed using the below cell lines, as described in part 1: • HEK-293 hGPR17 (used to study the compounds acting via Gα-q pathway) • HEK-293 Suchi5 hGPR17 (used to study the compounds acting via Gα-i pathway, where the Gα-i signaling is switched to a Gα-q signaling thanks to the Gα-i/q chimera Suchi5)
GPR17 activation was able to induce an endoplasmic reticulum calcium (Ca^2+) store release in cytosol which could be measured using the fluorescent Ca^2+ sensitive dye Fluo-8 No Wash Dye as readout.
HEK-293 hGPR17 and HEK-293 Suchi5 hGPR17 were seeded at a density of 15,000 cells/well into poly-D-lysine coated black 384-well plates with clear bottom in complete medium. Cells were incubated overnight at 37° C. in a humidified atmosphere of 5% CO2. Twenty-four hours after seeding, the culture medium was carefully removed manually and the cells were loaded for 60 minutes at room temperature with the Ca^2+ sensitive Fluo-8 No Wash Dye, according to manufacturer's instructions. Cells were then assayed using a fluorometric imaging plate reader (FLIPR^TETRA). Fluorescence (excitation: 470-495 nm; emission: 515-575 nm) was recorded during the experiment. […] After twenty minutes, a second injection of MDL29,951 at ˜EC80 (500 nM for HEK-293 hGPR17 and 2 nM for HEK-293 Suchi5 hGPR17) in assay buffer was performed at the FLIPR^TETRA and the signal of the emitted fluorescence was recorded for additional 2 minutes. All the compound injections and incubations were performed in duplicate. For data quality and data analysis the Screener® 16.0.6 (Genedata) software was used.

T1 sequence (Q13304 whole entry): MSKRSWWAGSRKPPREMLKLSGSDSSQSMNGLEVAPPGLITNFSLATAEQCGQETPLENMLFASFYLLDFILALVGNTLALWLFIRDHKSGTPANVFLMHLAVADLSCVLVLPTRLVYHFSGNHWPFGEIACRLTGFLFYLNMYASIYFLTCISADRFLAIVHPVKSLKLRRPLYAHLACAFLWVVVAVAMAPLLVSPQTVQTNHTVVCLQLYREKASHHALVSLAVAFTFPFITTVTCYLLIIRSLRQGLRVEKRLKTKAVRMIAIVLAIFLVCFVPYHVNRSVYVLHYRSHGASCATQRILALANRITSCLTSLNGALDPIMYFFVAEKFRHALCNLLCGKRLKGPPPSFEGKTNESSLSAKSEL

| Compound | IC50 [nM] |
| --- | --- |
| CC(c1ccccn1)c1cc(S(=O)(=O)Nc2ccc(C#N)cc2F)c[nH]1 (stereo not drawn) | 5000 to 50000 |
| Cc1[nH]c(-c2ccccc2)cc1S(=O)(=O)Nc1ccc(C#N)cc1F [Cpd 001, N-(4-cyano-2-fluorophenyl)-2-methyl-5-phenyl-1H-pyrrole-3-sulfonamide] | 500 to 5000 |
| N#Cc1ccc(NS(=O)(=O)c2c[nH]c(-c3cccc(F)c3)c2)c(F)c1 [Cpd 004, N-(4-cyano-2-fluoro-phenyl)-5-(3-fluorophenyl)-1H-pyrrole-3-sulfonamide] | < 500 |
| N#Cc1ccc(NS(=O)(=O)c2c[nH]c(-c3cccc(Cl)c3)c2)c(F)c1 [Cpd 006, 5-(3-chlorophenyl)-N-(4-cyano-2-fluoro-phenyl)-1H-pyrrole-3-sulfonamide] | < 500 |
| N#Cc1ccc(NS(=O)(=O)c2c[nH]c(-c3ccc(F)cc3)c2)c(F)c1 [Cpd 007, N-(4-cyano-2-fluoro-phenyl)-5-(4-fluorophenyl)-1H-pyrrole-3-sulfonamide] | < 500 |
| Cc1ccc(-c2cc(S(=O)(=O)Nc3ccc(C#N)cc3F)c[nH]2)cc1 [Cpd 008, N-(4-cyano-2-fluoro-phenyl)-5-(p-tolyl)-1H-pyrrole-3-sulfonamide] | 500 to 5000 |
| N#Cc1ccc(NS(=O)(=O)c2c[nH]cc2-c2ccccc2)c(F)c1 [Cpd 009, N-(4-cyano-2-fluorophenyl)-4-phenyl-1H-pyrrole-3-sulfonamide] | 500 to 5000 |
| N#Cc1ccc(NS(=O)(=O)c2c[nH]c(-c3ccc(Cl)cc3)c2)c(F)c1 [Cpd 011, 5-(4-chlorophenyl)-N-(4-cyano-2-fluoro-phenyl)-1H-pyrrole-3-sulfonamide] | 500 to 5000 |
| N#Cc1ccc(NS(=O)(=O)c2c[nH]c(C(=O)c3ccccc3)c2)c(F)c1 [Cpd 013, 5-benzoyl-N-(4-cyano-2-fluoro-phenyl)-1H-pyrrole-3-sulfonamide] | 5000 to 50000 |
| N#Cc1ccc(NS(=O)(=O)c2c[nH]c(-c3ccccc3F)c2)c(F)c1 [Cpd 014, N-(4-cyano-2-fluorophenyl)-5-(2-fluorophenyl)-1H-pyrrole-3-sulfonamide] | < 500 |
| N#Cc1ccc(NS(=O)(=O)c2c[nH]c(C3CCCC3)c2)c(F)c1 [Cpd 018, N-(4-cyano-2-fluorophenyl)-5-cyclopentyl-1H-pyrrole-3-sulfonamide] | 500 to 5000 |
| N#Cc1ccc(NS(=O)(=O)c2c[nH]c(Cc3ccccc3)c2)c(F)c1 [Cpd 019, 5-benzyl-N-(4-cyano-2-fluoro-phenyl)-1H-pyrrole-3-sulfonamide] | 500 to 5000 |
| N#Cc1ccc(NS(=O)(=O)c2cc(-c3ccccc3)[nH]c2F)c(F)c1 [Cpd 020, N-(4-cyano-2-fluorophenyl)-2-fluoro-5-phenyl-1H-pyrrole-3-sulfonamide] | 500 to 5000 |
| N#Cc1ccc(NS(=O)(=O)c2c[nH]c(-c3cccc(C(F)(F)F)c3)c2)c(F)c1 [Cpd 021, N-(4-cyano-2-fluoro-phenyl)-5-[3-(trifluoromethyl)phenyl]-1H-pyrrole-3-sulfonamide] | 500 to 5000 |
| CC(C)c1cccc(-c2cc(S(=O)(=O)Nc3ccc(C#N)cc3F)c[nH]2)c1 [Cpd 022, N-(4-cyano-2-fluoro-phenyl)-5-(3-isopropylphenyl)-1H-pyrrole-3-sulfonamide] | 5000 to 50000 |
| N#Cc1ccc(NS(=O)(=O)c2c[nH]c(-c3ccccc3)c2F)c(F)c1 [Cpd 023, N-(4-cyano-2-fluorophenyl)-4-fluoro-5-phenyl-1H-pyrrole-3-sulfonamide] | < 500 |
| N#Cc1ccc(NS(=O)(=O)c2c[nH]c(-c3ccncc3)c2)c(F)c1 [Cpd 024, N-(4-cyano-2-fluoro-phenyl)-5-(4-pyridyl)-1H-pyrrole-3-sulfonamide] | 5000 to 50000 |
| N#Cc1cccc(-c2cc(S(=O)(=O)Nc3ccc(C#N)cc3F)c[nH]2)c1 [Cpd 025, N-(4-cyano-2-fluoro-phenyl)-5-(3-cyanophenyl)-1H-pyrrole-3-sulfonamide] | < 500 |
| N#Cc1ccc(NS(=O)(=O)c2c[nH]c(-c3ccccn3)c2)c(F)c1 [Cpd 026, N-(4-cyano-2-fluoro-phenyl)-5-(2-pyridyl)-1H-pyrrole-3-sulfonamide] | < 500 |
| N#Cc1ccc(NS(=O)(=O)c2c[nH]c(-c3cccnc3)c2)c(F)c1 [Cpd 027, N-(4-cyano-2-fluoro-phenyl)-5-(3-pyridyl)-1H-pyrrole-3-sulfonamide] | 500 to 5000 |
| Cc1c(S(=O)(=O)Nc2ccc(C#N)cc2F)c[nH]c1-c1ccccc1 [Cpd 033, N-(4-cyano-2-fluoro-phenyl)-4-methyl-5-phenyl-1H-pyrrole-3-sulfonamide] | < 500 |
| N#Cc1ccc(NS(=O)(=O)c2c[nH]cc2Cc2ccccc2)c(F)c1 [Cpd 034, 4-benzyl-N-(4-cyano-2-fluorophenyl)-1H-pyrrole-3-sulfonamide] | < 500 |
| N#Cc1ccc(NS(=O)(=O)c2c[nH]c(-c3ccc(F)cc3F)c2)c(F)c1 [Cpd 038, N-(4-cyano-2-fluoro-phenyl)-5-(2,4-difluorophenyl)-1H-pyrrole-3-sulfonamide] | < 500 |

More lines, now with the values ahead:

| IC50 [nM] | Compound |
| --- | --- |
| < 500 | N#Cc1ccc(NS(=O)(=O)c2c[nH]c(-c3ccccc3)c2)c(F)c1 [Cpd 002, N-(4-cyano-2-fluorophenyl)-5-phenyl-1H-pyrrole-3-sulfonamide] |
| < 500 | O=S(=O)(Nc1cc(F)c(Br)cc1F)c1c[nH]c(-c2ccccc2)c1 [Cpd 003, N-(4-bromo-2,5-difluoro-phenyl)-5-phenyl-1H-pyrrole-3-sulfonamide] |
| < 500 | Cc1cccc(-c2cc(S(=O)(=O)Nc3ccc(C#N)cc3F)c[nH]2)c1 [Cpd 005, N-(4-cyano-2-fluoro-phenyl)-5-(m-tolyl)-1H-pyrrole-3-sulfonamide] |
| < 500 | COc1cccc(-c2cc(S(=O)(=O)Nc3ccc(C#N)cc3F)c[nH]2)c1 [Cpd 010, N-(4-cyano-2-fluoro-phenyl)-5-(3-methoxyphenyl)-1H-pyrrole-3-sulfonamide] |
| 5000 to 50000 | COc1ccc(-c2cc(S(=O)(=O)Nc3ccc(C#N)cc3F)c[nH]2)cc1 [Cpd 012, N-(4-cyano-2-fluoro-phenyl)-5-(4-methoxyphenyl)-1H-pyrrole-3-sulfonamide] |
| < 500 | Cc1ccccc1-c1cc(S(=O)(=O)Nc2ccc(C#N)cc2F)c[nH]1 [Cpd 015, N-(4-cyano-2-fluoro-phenyl)-5-(o-tolyl)-1H-pyrrole-3-sulfonamide] |
| < 500 | N#Cc1ccc(NS(=O)(=O)c2c[nH]c(-c3ccccc3Cl)c2)c(F)c1 [Cpd 016, 5-(2-chlorophenyl)-N-(4-cyano-2-fluoro-phenyl)-1H-pyrrole-3-sulfonamide] |
| < 500 | COc1ccccc1-c1cc(S(=O)(=O)Nc2ccc(C#N)cc2F)c[nH]1 [Cpd 017, N-(4-cyano-2-fluoro-phenyl)-5-(2-methoxyphenyl)-1H-pyrrole-3-sulfonamide] |
| < 500 | N#Cc1cc(F)c(NS(=O)(=O)c2c[nH]c(-c3ccccc3)c2)cc1F [Cpd 028, N-(4-cyano-2,5-difluoro-phenyl)-5-phenyl-1H-pyrrole-3-sulfonamide] |
| 5000 to 50000 | Cc1cc(C#N)ccc1NS(=O)(=O)c1c[nH]c(-c2ccccc2)c1 [Cpd 029, N-(4-cyano-2-methyl-phenyl)-5-phenyl-1H-pyrrole-3-sulfonamide] |
| 500 to 5000 | COc1cc(C#N)ccc1NS(=O)(=O)c1c[nH]c(-c2ccccc2)c1 [Cpd 030, N-(4-cyano-2-methoxy-phenyl)-5-phenyl-1H-pyrrole-3-sulfonamide] |
| 500 to 5000 | Cc1cc(NS(=O)(=O)c2c[nH]c(-c3ccccc3)c2)ccc1C#N [Cpd 031, N-(4-cyano-3-methyl-phenyl)-5-phenyl-1H-pyrrole-3-sulfonamide] |
| 5000 to 50000 | COc1ccc(NS(=O)(=O)c2c[nH]c(-c3ccccc3)c2)c(F)c1 [Cpd 032, N-(2-fluoro-4-methoxy-phenyl)-5-phenyl-1H-pyrrole-3-sulfonamide] |
| < 500 | N#Cc1ccc(NS(=O)(=O)c2c[nH]c(-c3ccccc3)c2)cc1F [Cpd 035, N-(4-cyano-3-fluoro-phenyl)-5-phenyl-1H-pyrrole-3-sulfonamide] |
| 500 to 5000 | N#Cc1ccc(NS(=O)(=O)c2c[nH]c(-c3ccccc3)c2)c(Cl)c1 [Cpd 036, N-(2-chloro-4-cyano-phenyl)-5-phenyl-1H-pyrrole-3-sulfonamide] |
| 5000 to 50000 | N#Cc1ccc(NS(=O)(=O)c2c[nH]c(-c3ccccc3)c2)nc1 [Cpd 037, N-(5-cyano-2-pyridyl)-5-phenyl-1H-pyrrole-3-sulfonamide] |
